Data as given in the supplement of paper PMC13380429.
± gives the standard deviation of the averaged measurements.

Legend:
Settings in all cases: 72 h
Caco-2 [1] = assay: cell viability relative to DMSO; higher = less toxic
Calu-3 [2] = assay: as above
HepG2 [3] = assay: as above
U2OS [4] = assay: as above
Vero E6 [5] = assay: as above
Caco-2 [6] = assay: relative viability EC50 (midpoint between 100% and the lowest measured viability); higher = less toxic
Calu-3 [7] = assay: as above
HepG2 [8] = assay: as above
U2OS [9] = assay: as above
Vero E6 [10] = assay: as above
Caco-2 [11] = assay: drug sensitivity score (DSS) for viability; higher = more toxic; extreme values may be limits of the assay
Calu-3 [12] = assay: as above
HepG2 [13] = assay: as above
U2OS [14] = assay: as above
Vero E6 [15] = assay: as above

Compound | cell viability (Caco-2 [1]; 1 nM) | cell viability (Caco-2 [1]; 10 nM) | cell viability (Caco-2 [1]; 100 nM) | cell viability (Caco-2 [1]; 1000 nM) | cell viability (Caco-2 [1]; 10000 nM) | cell viability (Calu-3 [2]; 1 nM) | cell viability (Calu-3 [2]; 10 nM) | cell viability (Calu-3 [2]; 100 nM) | cell viability (Calu-3 [2]; 1000 nM) | cell viability (Calu-3 [2]; 10000 nM) | cell viability (HepG2 [3]; 1 nM) | cell viability (HepG2 [3]; 10 nM) | cell viability (HepG2 [3]; 100 nM) | cell viability (HepG2 [3]; 1000 nM) | cell viability (HepG2 [3]; 10000 nM) | cell viability (U2OS [4]; 1 nM) | cell viability (U2OS [4]; 10 nM) | cell viability (U2OS [4]; 100 nM) | cell viability (U2OS [4]; 1000 nM) | cell viability (U2OS [4]; 10000 nM) | cell viability (Vero E6 [5]; 1 nM) | cell viability (Vero E6 [5]; 10 nM) | cell viability (Vero E6 [5]; 100 nM) | cell viability (Vero E6 [5]; 1000 nM) | cell viability (Vero E6 [5]; 10000 nM) | relative viability EC50 (Caco-2 [6]) | relative viability EC50 (Calu-3 [7]) | relative viability EC50 (HepG2 [8]) | relative viability EC50 (U2OS [9]) | relative viability EC50 (Vero E6 [10]) | drug sensitivity score (Caco-2 [11]) | drug sensitivity score (Calu-3 [12]) | drug sensitivity score (HepG2 [13]) | drug sensitivity score (U2OS [14]) | drug sensitivity score (Vero E6 [15])
O=c1[nH]cnc2c([C@@H]3N[C@H](CO)[C@@H](O)[C@H]3O)c[nH]c12 [forodesine] | 103% | 98.4% | 98.4% | 101% | 98.6% | 92.4% | 89% | 97.2% | 91.5% | 94.4% | 106% | 104% | 110% | 92.6% | 102% | 102% | 97.6% | 94.4% | 103% | 98% | 103% | 96.8% | 96.8% | 97.2% | 94.7% | > 10 µM | > 10 µM | > 10 µM | > 10 µM | > 10 µM | 0 | 0 | 0 | 0 | 0
O=C(c1ccc(Cl)o1)N1CC2CNCC2C1 (stereo not given) [AZD1446] | 103% | 97.8% | 97% | 103% | 103% | 112% | 89.8% | 94.4% | 89.4% | 107% | 99.3% | 93.1% | 90.2% | 99.1% | 88% | 99.6% | 98.6% | 96.1% | 97.7% | 97.8% | 96.4% | 98.2% | 98.7% | 99.6% | 91.3% | > 10 µM | > 10 µM | > 10 µM | > 10 µM | > 10 µM | 0 | 0 | 0 | 0 | 0
O=C(NCCCN1CCOCC1)c1ccc(Cl)cc1 [eprobemide] | 106% | 92.3% | 108% | 103% | 98.8% | 105% | 87.6% | 105% | 92.2% | 103% | 108% | 107% | 88.6% | 110% | 76.6% | 102% | 92.7% | 103% | 97.4% | 99.5% | 92.1% | 96.3% | 100% | 99.1% | 99.6% | > 10 µM | > 10 µM | > 10 µM | > 10 µM | > 10 µM | 0 | 0 | 0.5 | 0 | 0
NC[C@H]1O[C@H](O[C@H]2[C@H](O[C@@H]3O[C@H](CO)[C@@H](O)[C@H]3O)[C@@H](O)[C@H](N)C[C@@H]2N)[C@H](N)[C@@H](O)[C@@H]1O [ribostamycin-sulfate] | 94.5 ± 5% | 97.1 ± 2.4% | 87.5 ± 12% | 93 ± 2% | 88.5 ± 9.1% | 93.8 ± 8.4% | 97.7 ± 13% | 90.5 ± 5% | 104 ± 9.5% | 89.6 ± 0.99% | 99.2 ± 0.85% | 106.8 ± 0.21% | 97 ± 5.2% | 102 ± 4.5% | 93.6 ± 8.2% | 96.8 ± 1.1% | 98.8 ± 2.2% | 96.3 ± 2.3% | 101 ± 4.4% | 98.5 ± 1.5% | 103 ± 8.4% | 94 ± 5.7% | 100 ± 4.7% | 97.2 ± 2.3% | 102 ± 2.2% | > 10 µM | > 10 µM | > 10 µM | > 10 µM | > 10 µM | 0.9 ± 1.3 | 0 | 0.05 ± 0.071 | 0 | 0
CC(=O)C1=C(O)C=C2Oc3c(C(C)=O)c(O)c(C)c(O)c3C2(C)C1=O (stereo not drawn) [usniacin-(+)] | 104% | 101% | 91.1% | 95.6% | 108% | 107% | 99.4% | 95.2% | 113% | 96.4% | 111% | 97.1% | 102% | 110% | 94% | 98.9% | 75.3% | 95.8% | 83.5% | 95.5% | 101% | 95.4% | 100% | 98.9% | 101% | > 10 µM | > 10 µM | > 10 µM | > 10 µM | > 10 µM | 0 | 0 | 0 | 0 | 0
CC(=O)NC1CCSC1=O (stereo not given) [citiolone] | 98.8% | 92.6% | 97.6% | 99.7% | 99.6% | 103% | 98.4% | 93.2% | 101% | 110% | 102% | 95.8% | 95.1% | 109% | 110% | 95.4% | 95.4% | 101% | 100% | 105% | 99.9% | 94.7% | 95.6% | 102% | 106% | > 10 µM | > 10 µM | > 10 µM | > 10 µM | > 10 µM | 0 | 0 | 0 | 0 | 0
C[n+]1c2cc(N)ccc2cc2ccc(N)cc21 [acriflavinium] | 97.4% | 91.1% | 91% | 62.3% | 37.4% | 108% | 108% | 99.3% | 94.9% | 25.8% | 84.1% | 85.9% | 88.6% | 33.1% | 1.2% | 98.7% | 101% | 99.7% | 100% | 18.2% | 96.9% | 94.8% | 103% | 82% | 49.3% | 0.594 µM | 2.62 µM | 0.516 µM | 3.2 µM | 1.27 µM | 8.3 | 4.9 | 14.4 | 4.5 | 5.2
O=C(c1ccc(CN2CCOCC2)cc1)N1CCN(C2CC2)CC1 [bavisant] | 104% | 102% | 97.7% | 89.6% | 98.9% | 86.9% | 95% | 87.1% | 88.9% | 89.2% | 108% | 104% | 90.6% | 107% | 94.4% | 102% | 97.6% | 103% | 101% | 99.8% | 109% | 104% | 104% | 104% | 99.6% | > 10 µM | > 10 µM | > 10 µM | > 10 µM | > 10 µM | 0 | 0.5 | 0 | 0 | 0
C[C@@]1(O)[C@H](O)[C@@H](CO)O[C@H]1n1ccc(N)nc1=O [NM107] | 93% | 97.3% | 95.9% | 91.2% | 103% | 99.1% | 104% | 95% | 93.9% | 84.6% | 99% | 107% | 106% | 111% | 110% | 98.3% | 93.4% | 100% | 94.8% | 101% | 96% | 100% | 88.7% | 99.4% | 113% | > 10 µM | > 10 µM | > 10 µM | > 10 µM | > 10 µM | 0 | 0.3 | 0 | 0 | 0
CC[N+]1(C)CCCC(OC(=O)C(O)(c2ccccc2)c2ccccc2)C1 (stereo not given) [pipenzolate] | 102% | 100% | 103% | 95.2% | 95.7% | 96.3% | 95.5% | 93.3% | 94.6% | 91.8% | 89.3% | 102% | 97.7% | 99.8% | 94.3% | 100% | 95% | 95.4% | 93.3% | 97.4% | 105% | 101% | 105% | 103% | 96.7% | > 10 µM | > 10 µM | > 10 µM | > 10 µM | > 10 µM | 0 | 0 | 0 | 0 | 0
CC(C)C1=C2[C@H]3CC[C@@H]4[C@@]5(C)CC[C@H](OC(=O)CC(C)(C)C(=O)O)C(C)(C)[C@@H]5CC[C@@]4(C)[C@]3(C)CC[C@@]2([C@@H](O)CN(CCN(C)C)Cc2ccc(Cl)cc2)CC1=O | 96.3% | 98.7% | 97.7% | 100% | 97.2% | 95.7% | 91.8% | 106% | 104% | 105% | 96.7% | 105% | 100% | 99.6% | 95.4% | 95.3% | 97.8% | 94.3% | 94.9% | 94.2% | 102% | 106% | 106% | 99.5% | 105% | > 10 µM | > 10 µM | > 10 µM | > 10 µM | > 10 µM | 0 | 0 | 0 | 0 | 0
Nc1ccn([C@H]2CO[C@@H](CO)S2)c(=O)n1 [apricitabine] | 99.9% | 91.7% | 98.9% | 103% | 105% | 101% | 101% | 98.5% | 92.5% | 102% | 94.9% | 105% | 104% | 99.8% | 103% | 98.4% | 94.2% | 96.6% | 102% | 100% | 93.7% | 96.9% | 99.1% | 96.4% | 104% | > 10 µM | > 10 µM | > 10 µM | > 10 µM | > 10 µM | 0 | 0 | 0 | 0 | 0
CCC(CC)Nc1cc(C)nc(Oc2c(C)cc(C)cc2C)c1C | 90.2% | 96.6% | 101% | 99.9% | 100% | 94.3% | 94.5% | 98.6% | 96.5% | 100% | 94.9% | 104% | 93.1% | 108% | 103% | 104% | 95.7% | 102% | 98.5% | 97% | 96.8% | 96.1% | 90.1% | 94.3% | 109% | > 10 µM | > 10 µM | > 10 µM | > 10 µM | > 10 µM | 0 | 0 | 0 | 0 | 0
CCOC(=O)[C@H]1O[C@@H]1C(=O)N[C@@H](CC(C)C)C(=O)NCCC(C)C [aloxistatin] | 97.6% | 98.8% | 90.5% | 102% | 98% | 91.7% | 99.3% | 107% | 101% | 99.5% | 118% | 102% | 96.1% | 90.7% | 88.8% | 99.6% | 102% | 94.7% | 102% | 97.6% | 106% | 109% | 108% | 102% | 99.2% | > 10 µM | > 10 µM | > 10 µM | > 10 µM | > 10 µM | 0 | 0 | 0.2 | 0 | 0
